This note sets out measurements from ChEMBL document CHEMBL4359854, “Repurposing mosloflavone/5,6,7-trimethoxyflavone-resveratrol hybrids: Discovery of novel p38-α MAPK inhibitors as potent interceptors of macrophage-dependent production of proinflammatory mediators” (Eur J Med Chem, 2019).

Molecules are shown by their SMILES. Calls of active or inactive are those of the source. The calls are words filed in the database; no cut-off is given here.

What is called inhibition is the change of the read-out against control, counted positive when it falls. A word on the IC50: it is the point on the concentration scale where inhibition reaches its midpoint.

The nature of data set [1]: Cytotoxicity against LPS-induced mouse RAW264.7 cells assessed as cell viability at 1 uM incubated for 24 hrs by MTT assay relative to control. Type of data set: cell-based. The settings on record: LPS-induced RAW264.7 cells, read-out: Activity. On the technique in general: Tetrazolium assays rely on reduction of a dye to a coloured formazan, in cell work by metabolically active cells.

For data set [2], the system named is RAW264.7. Put plainly: Anti-inflammatory activity in mouse RAW264.7 cells assessed as inhibition of LPS-induced NO production at 1 uM preincubated for 1 hr followed by LPS addition and measured after 24 hrs by Griess reagent-based assay relative to control. Type of data set: functional. Background: The Griess reaction detects nitrite, a stable product of nitric oxide.

Data set [3] relates to RAW264.7. Put plainly: Anti-inflammatory activity in mouse RAW264.7 cells assessed as inhibition of LPS-induced PGE2 production at 1 uM preincubated for 1 hr followed by LPS addition and measured after 24 hrs by EIA relative to control. The format is functional.
Data set [4] deals with RAW264.7. As to the kind of experiment: Anti-inflammatory activity in mouse RAW264.7 cells assessed as inhibition of LPS-induced PGE2 production preincubated for 1 hr followed by LPS addition and measured after 24 hrs by EIA. The format is functional, cell-based.
Data set [5] has as its system RAW264.7. As to the kind of experiment: Anti-inflammatory activity in mouse RAW264.7 cells assessed as inhibition of LPS-induced PGE2 production at 40 nM preincubated for 1 hr followed by LPS addition and measured after 24 hrs by EIA. Type of data set: functional, cell-based.
Data set [6] deals with RAW264.7. As to the kind of experiment: Anti-inflammatory activity in mouse RAW264.7 cells assessed as inhibition of LPS-induced IL-6 production at 1 uM preincubated for 1 hr followed by LPS addition and measured after 24 hrs by EIA relative to control. The format is functional.
Data set [7] deals with RAW264.7. As to the kind of experiment: Anti-inflammatory activity in mouse RAW264.7 cells assessed as inhibition of LPS-induced TNFalpha production at 1 uM preincubated for 1 hr followed by LPS addition and measured after 24 hrs by EIA relative to control. Type of data set: functional.
For data set [8], the system named is RAW264.7. As to the kind of experiment: Anti-inflammatory activity in mouse RAW264.7 cells assessed as inhibition of LPS-induced IL-1beta production at 1 uM preincubated for 1 hr followed by LPS addition and measured after 24 hrs by EIA relative to control. Type of data set: functional.
Data set [9] concerns the target Mitogen-activated protein kinase 14 (Mus musculus) (UniProt P47811). Put plainly: Inhibition of p38alpha MAPK in LPS-stimulated mouse RAW264.7 cells assessed as reduction in MK2 phosphorylation at 5 uM incubated for 120 mins by Western blot analysis. Type of data set: cell-based. Background: Immunoblotting shows a protein as a band on a membrane.
Data set [10] relates to RAW264.7. As to the kind of experiment: Effect on NO production in mouse RAW264.7 cells assessed as inhibition of NO production at 2 to 5 uM incubated for 24 hrs by Griess reagent-based assay. Type of data set: cell-based. Conditions: raw264.7, 24 h.
In data set [11] the test system is RAW264.7. Put plainly: Anti-inflammatory activity in mouse RAW264.7 cells assessed as inhibition of LPS-induced NO production at 0.5 uM preincubated for 1 hr followed by LPS addition and measured after 24 hrs by Griess reagent-based assay. Type of data set: functional, cell-based.
Data set [12] relates to RAW264.7. As to the kind of experiment: Anti-inflammatory activity in mouse RAW264.7 cells assessed as inhibition of LPS-induced NO production preincubated for 1 hr followed by LPS addition and measured after 24 hrs by Griess reagent-based assay. Type of data set: functional, cell-based.
For data set [13], the system named is RAW264.7. As to the kind of experiment: Anti-inflammatory activity in mouse RAW264.7 cells assessed as inhibition of LPS-induced PGE2 production at 0.2 uM preincubated for 1 hr followed by LPS addition and measured after 24 hrs by EIA. Type of data set: functional, cell-based.
Data set [14] concerns RAW264.7. Put plainly: Anti-inflammatory activity in mouse RAW264.7 cells assessed as inhibition of LPS-induced IL-6 production preincubated for 1 hr followed by LPS addition and measured after 24 hrs by EIA. The format is functional, cell-based.
Data set [15] has as its system RAW264.7. Put plainly: Anti-inflammatory activity in mouse RAW264.7 cells assessed as inhibition of LPS-induced IL-6 production at 1 to 5 uM preincubated for 1 hr followed by LPS addition and measured after 24 hrs by EIA. The format is functional, cell-based.
The target in data set [16] is Mitogen-activated protein kinase 14 (Mus musculus) (UniProt P47811). Put plainly: Inhibition of p38alpha MAPK in LPS-stimulated mouse RAW264.7 cells assessed as reduction in p38alpha MAPK phosphorylation at 4 uM incubated for 60 mins by Western blot analysis. Type of data set: cell-based.
The test system of data set [17] is RAW264.7. As to the kind of experiment: Effect on IL-6 production in mouse RAW264.7 cells assessed as increase in IL-6 production up to 5 uM measured after 1 hr by EIA. Conditions: raw264.7, 1 h. Type of data set: ADME, cell-based.
For data set [18], the system named is RAW264.7. Put plainly: Anti-inflammatory activity in mouse RAW264.7 cells assessed as inhibition of LPS-induced TNFalpha production preincubated for 1 hr followed by LPS addition and measured after 24 hrs by EIA. Type of data set: functional, cell-based.
The test system of data set [19] is RAW264.7. As to the kind of experiment: Anti-inflammatory activity in mouse RAW264.7 cells assessed as inhibition of LPS-induced TNFalpha production at 0.5 uM preincubated for 1 hr followed by LPS addition and measured after 24 hrs by EIA. The format is functional, cell-based.
In data set [20] the test system is RAW264.7. Put plainly: Effect on TNF-alpha production in mouse RAW264.7 cells assessed as increase in TNFalpha production at up to 5 uM measured after 1 hr by EIA. The format is ADME, cell-based. The settings on record: raw264.7, 1 h.
Data set [21] has as its target Mitogen-activated protein kinase 14 (Mus musculus) (UniProt P47811). As to the kind of experiment: Inhibition of p38alpha MAPK in LPS-stimulated mouse RAW264.7 cells assessed as reduction in p38alpha MAPK phosphorylation incubated for 60 mins by Western blot analysis. Type of data set: cell-based.
Data set [22] shares this target. As to the kind of experiment: Inhibition of p38alpha MAPK in LPS-stimulated mouse RAW264.7 cells assessed as reduction in p38alpha MAPK phosphorylation at 2 uM incubated for 60 mins by Western blot analysis. Type of data set: cell-based.
Data set [23] addresses T1, Mitogen-activated protein kinase 14 (Mus musculus, UniProt P47811). As to the kind of experiment: Inhibition of p38alpha MAPK in unstimulated mouse RAW264.7 cells assessed as reduction in p38alpha MAPK phosphorylation at 4 uM incubated for 60 mins by Western blot analysis. Type of data set: cell-based. Conditions: RAW264.7, mouse, 1 h.
Data set [24] addresses T1, Mitogen-activated protein kinase 14. Put plainly: Inhibition of p38alpha MAPK in unstimulated mouse RAW264.7 cells assessed as reduction in p38alpha MAPK phosphorylation at 2 uM incubated for 60 mins by Western blot analysis. The format is cell-based. Conditions: raw264.7, 1 h.
Data set [25] addresses Mitogen-activated protein kinase 14 (Mus musculus) (UniProt P47811). As to the kind of experiment: Inhibition of p38alpha MAPK in LPS-stimulated mouse RAW264.7 cells assessed as reduction in p38alpha MAPK phosphorylation at 5 uM incubated for 60 mins by Western blot analysis. The format is cell-based.
The target is the same in data set [26]. As to the kind of experiment: Inhibition of p38alpha MAPK in LPS-stimulated mouse RAW264.7 cells assessed as reduction in MK2 phosphorylation at 5 uM by Western blot analysis. The format is cell-based. Conditions: TDE = time-dependent effect.
Data set [27] has as its system RAW264.7. Put plainly: Anti-inflammatory activity in mouse RAW264.7 cells assessed as inhibition of LPS-induced IL-6 production at 0.5 uM preincubated for 1 hr followed by LPS addition and measured after 24 hrs by EIA. The format is functional, cell-based.
Data set [28] concerns RAW264.7. Put plainly: Anti-inflammatory activity in mouse RAW264.7 cells assessed as inhibition of LPS-induced PGE2 production at 10 nM preincubated for 1 hr followed by LPS addition and measured after 24 hrs by EIA relative to control. The format is functional.
For data set [29], the system named is RAW264.7. As to the kind of experiment: Anti-inflammatory activity in mouse RAW264.7 cells assessed as remaining LPS-induced NO production at 40 uM preincubated for 1 hr followed by LPS addition and measured after 24 hrs by Griess reagent-based assay relative to control. The format is functional.

Mitogen-activated protein kinase 14 (Mus musculus), sequence (P47811 whole entry): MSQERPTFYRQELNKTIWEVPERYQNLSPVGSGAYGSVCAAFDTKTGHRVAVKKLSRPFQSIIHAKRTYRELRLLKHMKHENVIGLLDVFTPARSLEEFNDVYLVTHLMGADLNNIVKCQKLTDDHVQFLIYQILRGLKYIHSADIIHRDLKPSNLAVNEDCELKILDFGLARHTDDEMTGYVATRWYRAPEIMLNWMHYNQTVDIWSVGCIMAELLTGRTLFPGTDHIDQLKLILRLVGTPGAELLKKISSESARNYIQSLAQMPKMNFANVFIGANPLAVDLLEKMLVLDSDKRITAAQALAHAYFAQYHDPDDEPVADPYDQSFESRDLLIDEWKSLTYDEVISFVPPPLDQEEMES
T1 sequence (P47811 whole entry): as above

Take `COc1ccccc1C(=O)Nc1cccc(-c2cc(=O)c3c(O)c(OC)c(OC)cc3o2)c1`: in [1], the viability at 24 h, 1 µM was 90.9%. The inhibition at 1 µM in the data set on RAW264.7 [2] was 2.62%; in the data set with RAW264.7 [3], 82.8%; with RAW264.7 [6], -9.4%; with RAW264.7 [7], -9.74%; in the data set on RAW264.7 [8], 41.3%. Also, the IC50 with RAW264.7 [4] is 310 nM. Also, the inhibition entry in the data set on RAW264.7 [4] is “Dose-dependent effect”. For the same compound, the inhibition result (in the data set with RAW264.7 [5]; in data set [9]) was “Active” each time.

Regarding `COc1cc(NC(=O)c2cccc(-c3cc(=O)c4c(O)c(OC)c(OC)cc4o3)c2)cc(OC)c1OC`, the Activity result in the data set on RAW264.7 [10], in the data set on RAW264.7 [17] and with RAW264.7 [20] was “Non-Toxic” in each case. Also, the inhibition result (with RAW264.7 [11]; with RAW264.7 [15]; in the data set on RAW264.7 [19]; in data set [22]) was “Active” in each case. Further, in data set [1], the viability at 24 h, 1 µM was 144%. Moreover, the inhibition at 1 µM came to 44.8% in the data set on RAW264.7 [2]; 35.7% with RAW264.7 [3]; 53.5% in the data set on RAW264.7 [6]; 29.4% in the data set on RAW264.7 [7]; 41% in the data set with RAW264.7 [8]. Moreover, the results for the IC50 in the data set on RAW264.7 [12] and in the data set on RAW264.7 [4] were 2110 nM and 980 nM, respectively. The inhibition result with RAW264.7 [12] is “Dose-dependent effect”; in the data set with RAW264.7 [4] it was “Dose-dependent effect”; in the data set with RAW264.7 [14], “Dose-dependent effect”; in [16], 100%; in the data set on RAW264.7 [18], “Dose-dependent effect”; in [21], “Dose-dependent effect”. In the data set with RAW264.7 [13], the inhibition result was “inactive”. The inhibition at 4 µM in [23] was determined as 100%. Besides, in data set [24], the “inhibition (INH)” value was “Active”.

In the case of `COc1ccccc1C(=O)Nc1ccc(-c2cc(=O)c3c(OC)c(OC)c(OC)cc3o2)cc1`, the viability at 24 h, 1 µM in [1] is 108%. Further, the inhibition at 1 µM in the data set with RAW264.7 [2] was 7.04%; in the data set on RAW264.7 [3], 78.8%; in the data set on RAW264.7 [6], -50%; in the data set on RAW264.7 [7] it was -51.3%; in the data set on RAW264.7 [8], 14.5%. For the same compound, in the data set on RAW264.7 [4], the IC50 came to 590 nM. The inhibition entry in the data set on RAW264.7 [4] is “Dose-dependent effect”; in data set [26], “Tde”. Also, the inhibition entry (with RAW264.7 [5]; in data set [25]) was “Active” in each case.

On to `COc1cc(NC(=O)c2cccc(-c3cc(=O)c4c(OC)c(OC)c(OC)cc4o3)c2)cc(OC)c1OC`, for which the Activity result with RAW264.7 [10], in the data set with RAW264.7 [17] and in the data set on RAW264.7 [20] was “Non-Toxic” throughout. For the same compound, the inhibition entry in the data set with RAW264.7 [11] and with RAW264.7 [13] was “inactive” each time. The viability at 24 h, 1 µM in [1] was 113%. Also, the inhibition at 1 µM was determined as 48.3% in the data set with RAW264.7 [2]; 11.2% with RAW264.7 [3]; 31.9% with RAW264.7 [6]; 28.6% with RAW264.7 [7]; 143% with RAW264.7 [8]. Besides, the values for the IC50 in the data set with RAW264.7 [12] and in the data set with RAW264.7 [4] were 2750 nM and 3400 nM, respectively. The inhibition entry in the data set with RAW264.7 [12], with RAW264.7 [4], in the data set on RAW264.7 [14] and with RAW264.7 [18] was “Dose-dependent effect” in each case. For the same compound, the inhibition result in the data set with RAW264.7 [27], in the data set on RAW264.7 [15] and in the data set on RAW264.7 [19] was “Active” throughout.

Turning to `CS(=O)(=O)Nc1ccc([N+](=O)[O-])cc1OC1CCCCC1` [NS-398], the inhibition at 0.01 µM with RAW264.7 [28] was found to be 58%.

As to `CC(=N)NCCCC[C@H](N)C(=O)O` [L-NIL], the Activity with RAW264.7 [29] is reported as 29 - 35%.
